The values below come from patent US12187704B2, “Triazine derivatives and methods of use thereof” (Ascletis BioScience Co., Ltd., priority 2022, dated 2025).

Like-named read-outs stand apart in the source and are kept apart here.

Data set [1] deals with SARS-COV-2 Omicron hCoV-19/USA/MD HP20874/2021 (B.1.1.529) strain. As to the kind of experiment: In vitro antiviral activity against SARS-COV-2 Omicron B.1.1.529 in Calu-3 cells. Conditions: Severe acute respiratory syndrome coronavirus 2, Calu-3, 48 h. The data set is classed as cell-based.
In data set [2] the test system is hCoV-19/USA/Chicago IL/2022 (BA.5.2). Description: In vitro antiviral activity against SARS-COV-2 BA.5.2 in Calu-3 cells. The data set is classed as cell-based. Conditions: Severe acute respiratory syndrome coronavirus 2, Calu-3, 48 h.
The nature of data set [3]: in vivo. The following applies: rat. How it is done: Oral administration: The compound was administered with a volume ratio of Solutol:PEG400:Tween80:Saline=10:40:2:48 […] at a dose of 10 mg/kg. At 0.25 h, 0.5 h, 1 h, 2 h, 4 h, 8 h, 10 h, 12 h and 24 h after drug administration, blood was serially collected from the fundus venous plexus in EP tubes containing EDTA, centrifuged at 8000 rpm/min for 5 min and then the upper layer of plasma was frozen at −80° C. and stored for LC-MS/MS analysis.
Intravenous administration: the compound was administered with a volume ratio of 10% DMSO/30% PEG400/60% water (v/v/v) at a dose of 1 mg/kg). At 0.0833 h, 0.25 h, 0.5 h, 1 h, 2 h, 4 h, 8 h, 12 h and 24 h after drug administration, blood was serially collected from the fundic venous plexus in EP tubes containing EDTA, centrifuged at 8000 rpm/min for 5 min and then the upper layer of plasma was frozen at −80° C. and stored for LC-MS/MS analysis.
(§1) The pharmacokinetic parameters were calculated from the blood concentration-time data obtained from the tests using WinNonlin software.

A short description of data set [4]: in vivo. The following applies: monkey, crab-eating monkeys, plasma. As for the experimental part: Oral administration: The compounds were administered with a volume ratio of Solutol:PEG400:Tween80:Saline=10:40:2:48 (v/v/v/v) at a dose of 2 mg/kg. At 0.25 h, 0.5 h, 1 h, 2 h, 4 h, 8 h, 10 h, 12 h and 24 h after drug administration, blood was serially collected from the fundus venous plexus in EP tubes containing EDTA, centrifuged at 8000 rpm/min for 5 min and then the upper layer of plasma was frozen at −80° C. and stored for LC-MS/MS analysis.
Intravenous administration: the compound was administered with 10% DMSO/30% PEG400/60% water (v/v/v) at a dose of 1 mg/kg). At 0.0833 h, 0.25 h, 0.5 h, 1 h, 2 h, 4 h, 8 h, 12 h and 24 h after drug administration, blood was serially collected from the fundic venous plexus in EP tubes containing EDTA, centrifuged at 8000 rpm/min for 5 min and then the upper layer of plasma was frozen at −80° C. and stored for LC-MS/MS analysis.
as §1

Where [5] appears, read: intravenous, 1 mg/kg, read-out: Intravenous injection AUClast.
The mark [6] stands for this setting: oral, 2 mg/kg, read-out: Oral AUClast.

In the case of `Cn1cc2cc(Nc3nc(=O)n(-c4cncnc4)c(=O)n3Cc3cc(F)c(F)cc3F)c(Cl)cc2n1` [Compound 1, 6-((6-chloro-2-methyl-2H-indazol-5-yl)amino)-3-(pyrimidin-5-yl)-1-(2,4,5-trifluorobenzyl)-1,3,5-triazine-2,4(1H,3H)-dione], the EC50 (commonly the concentration at which the effect is half-maximal) in data set [1] stood at 195 nM; in data set [2], 323 nM.

Consider `Cn1cc2cc(Nc3nc(=O)n(-c4cc(F)cnc4Cl)c(=O)n3Cc3cc(F)c(F)cc3F)c(Cl)cc2n1` [Compound 2], for which the EC50 in data set [1] worked out at 98 nM; in data set [2], 156 nM.

`Cn1cc2cc(Nc3nc(=O)n(-c4cc(Cl)cnc4Cl)c(=O)n3Cc3cc(F)c(F)cc3F)c(Cl)cc2n1` [Compound 3]: the EC50 worked out at 84 nM in data set [1] and 149 nM in data set [2].

Consider `O=c1nc(Nc2cc3cn(CCO)nc3cc2Cl)n(Cc2cc(F)c(F)cc2F)c(=O)n1-c1cncc(Cl)c1` [Compound 4], for which the AUC(0-t) in data set [3] (iv, 1 mg/kg) was 2040 ng·h/mL; in data set [3] (po, 10 mg/kg), 10800 ng·h/mL; in data set [4] (setting [5]), 10300 ng·h/mL; in data set [4] (setting [6]), 15200 ng·h/mL. The EC50 in data set [1] is 13 nM; in data set [2], 18 nM.

As to `[2H]C([2H])([2H])n1cc2cc(Nc3nc(=O)n(-c4cncc(Cl)c4)c(=O)n3Cc3cc(F)c(F)cc3F)c(Cl)cc2n1` [Compound 5], the AUC(0-t) in data set [3] (iv, 1 mg/kg) came to 19000 ng·h/mL; in data set [3] (po, 10 mg/kg), 224000 ng·h/mL; in data set [4] (setting [5]) it was 38400 ng·h/mL; in data set [4] (setting [6]) it was 60700 ng·h/mL. In addition, the EC50 was 9 nM in data set [1] and 15 nM in data set [2].

Take `[2H]C([2H])([2H])n1cc2cc(Nc3nc(=O)n(-c4cncc(Cl)c4)c(=O)n3Cc3cc(F)c(F)cc3F)c(Br)cc2n1` [Compound 6]: the AUC(0-t) in data set [3] (iv, 1 mg/kg) turned out to be 19500 ng·h/mL; in data set [3] (po, 10 mg/kg), 205000 ng·h/mL; in data set [4] (setting [5]), 35700 ng·h/mL; in data set [4] (setting [6]), 59000 ng·h/mL. Further, the half-maximal effective concentration (EC50) turned out to be 10 nM in data set [1] and 20 nM in data set [2].
